Test results as given in patent US8937089B2, “Synergistic mixtures of anthranilamide invertebrate pest control agents” (priority 2004, dated 2015).

How the values were obtained:
Assay in all cases: whole plant or invertebrate
Type in all cases: in vivo
[1] = tested on: potato leafhopper (Empoasca fabae Harris); conditions: alone
In short: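 Contact and/or systemic test: five adult leafhoppers aged 18–21 days were released onto Longio bean plants 1 h after spraying. The spray was 1 mL per unit in acetone/water (10:90) with 300 ppm non-ionic surfactant, run in triplicate. Plants were kept 6 days in a growth chamber at 19–21 °C and 50–70% humidity.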

[2] = tested on: silverleaf whitefly (Bemisia argentifolii Bellows and Perring); conditions: Table 2B
In short: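 Whitefly-egg-infested 12–14-day-old cotton plants sprayed with compound in 10% acetone/90% water plus 300 ppm non-ionic surfactant, in triplicate. Plants then held 13 days at 28 °C and 50–70% relative humidity before mortality assessment.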

[3] = tested on: diamondback moth (Plutella xylostella); conditions: Plutella xylostella, in Brassica oleracea, read-out: % mortality (obs)
Procedure: The test compounds were dissolved in water. […] Serial dilutions were made to obtain the appropriate concentrations. To obtain the desired mixture concentrations of each compound, twice the desired concentration of each of the two mixture partner compounds were mixed together in equal volumes.
The diluted solutions of the test compounds were sprayed to run-off on three-week-old tomato plants. The plants were placed on a rotating turntable sprayer (10 rpm). Test solutions were applied using a flat fan air-assisted nozzle (Spraying Systems 122440) at 10 psi (69 kPa). […] The leaves were cut into pieces, which were placed singly into 5.5 cm-by-3.5 cm cells of a sixteen-cell plastic tray. Each cell contained a 2.5-cm square of moistened chromatography paper to prevent desiccation. One insect was placed in each cell. There two trays per treatment. Trays were held in the growth chamber at 25° C., 16-hour light:8-hour dark, 60% relative humidity for 4 days.
For evaluating control of diamondback moth (Plutella xylostella), cabbage (var. Stonehead) plants were grown in Metromix potting soil in 10-cm pots in aluminum trays to test size (28 days, 3-4 full leaves) the plants were sprayed to the point of runoff using the turntable sprayer as described in Test I. Test compounds were formulated and sprayed on test plants as described for Test I. After drying for 2 hours, the treated leaves were excised and infested with one cabbage looper per cell and covered. The test units were placed on trays and put in a growth chamber at 25° C. and 60% relative humidity for 4 days.

[4] = tested on: green peach aphid (Myzus persicae Sulzer); conditions: Green Peach Aphid
In short: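 Compounds formulated in 10% acetone/water with 300 ppm X-77 surfactant were atomized onto aphid-infested radish seedlings, with three replicates per treatment. Infestation was 30–40 aphids transferred on excised leaf pieces, covering contact and systemic exposure. Test units stayed 6 days in a growth chamber at 19–21 °C and 50–70% relative humidity.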

[5] = tested on: corn planthopper (Peregrines maidis); conditions: Corn Plant Hopper
In short: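 Contact/systemic test on corn planthopper: 10–20 nymphs (18- to 20-day-old) released onto young maize plants 1 h after spraying, with three replicate units per treatment. Spray solution was acetone/water 10:90 containing 300 ppm non-ionic spreader; units kept 6 days at 19-21° C., 50-70% RH.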

[6] = tested on: cotton melon aphid (Aphis gossypii Glover)
In short: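 Sprays in acetone–water with 300 ppm non-ionic surfactant, at ppm concentrations, applied to aphid-infested (30–40 per plant) 6–7-day cotton, in triplicate. Evaluation after 6 days in a growth chamber at 19–21 °C and 50–70% relative humidity, covering contact and/or systemic action.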

[7] = tested on: western flower thrip (Frankliniella occidentalis Pergande); conditions: single compound, spray, 7 days
In short: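 Bean plants aged 5–7 days received a spray of test solution (10% acetone, 90% water, 300 ppm surfactant), in triplicate. Adult thrips (22–27 per unit) were introduced once the plants had dried for 1 h. Incubation lasted 7 days at 25° C and 45–55% RH.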

Cc1ccc(/N=C/N(C)/C=N/c2ccc(C)cc2C)c(C)c1 [Amitraz]
mortality at 10 ppm ([1]; Empoasca fabae, rate 10 ppm, read-out: % mortality (obs)): 0%
mortality at 100 ppm ([1]; Empoasca fabae, rate 100 ppm, read-out: % mortality (obs)): 7%
mortality at 1000 ppm ([1]; Empoasca fabae, rate 1000 ppm, read-out: % mortality (obs)): 13%
mortality at 500 ppm ([2]; Bemisia argentifolii, in Gossypium hirsutum, rate 500 ppm, read-out: % mortality (obs)): 5%
mortality at 1000 ppm ([2]; Bemisia argentifolii, in Gossypium hirsutum, rate 1000 ppm, read-out: % mortality (obs)): 0%
mortality at 2000 ppm ([2]; Bemisia argentifolii, in Gossypium hirsutum, rate 2000 ppm, read-out: % mortality (obs)): 0%
mortality at 10 ppm ([3]; rate 10 ppm): 70%
mortality at 100 ppm ([3]; rate 100 ppm): 20%
mortality at 1000 ppm ([3]; rate 1000 ppm): 50%
mortality at 10 ppm ([4]; Myzus persicae, in Raphanus sativus, rate 10 ppm, read-out: % mortality (obs)): 16%
mortality at 100 ppm ([4]; Myzus persicae, in Raphanus sativus, rate 100 ppm, read-out: % mortality (obs)): 12%
mortality at 1000 ppm ([4]; Myzus persicae, in Raphanus sativus, rate 1000 ppm, read-out: % mortality (obs)): 34%
mortality at 5 ppm ([5]; rate 5 ppm, read-out: % mortality (obs)): 6%
mortality at 10 ppm ([5]; rate 10 ppm, read-out: % mortality (obs)): 3%
mortality at 50 ppm ([5]; rate 50 ppm, read-out: % mortality (obs)): 5%
mortality at 10 ppm ([6]; Aphis gossypii, rate 10 ppm, read-out: % mortality (obs)): 20%
mortality at 100 ppm ([6]; Aphis gossypii, rate 100 ppm, read-out: % mortality (obs)): 35%
mortality at 1000 ppm ([6]; Aphis gossypii, rate 1000 ppm, read-out: % mortality (obs)): 29%
mortality at 10 ppm ([7]; Frankliniella occidentalis, 168 h, rate 10 ppm, read-out: % mortality (obs)): 40%
mortality at 100 ppm ([7]; Frankliniella occidentalis, 168 h, rate 100 ppm, read-out: % mortality (obs)): 30%
mortality at 1000 ppm ([7]; Frankliniella occidentalis, 168 h, rate 1000 ppm, read-out: % mortality (obs)): 20%

Chlorfenapyr
% mortality (obs) ([1]; rate 1 ppm): 73%
% mortality (obs) ([1]; rate 5 ppm): 100%
% mortality (obs) ([1]; rate 20 ppm): 100%
% mortality (obs) ([2]; rate 10 ppm): 6%
% mortality (obs) ([2]; rate 100 ppm): 14%
% mortality (obs) ([2]; rate 1000 ppm): 18%
% mortality (obs) ([4]; rate 1.5 ppm): 22%
% mortality (obs) ([4]; rate 7 ppm): 36%
% mortality (obs) ([4]; rate 35 ppm): 100%
% mortality (obs) ([5]; rate 1.5 ppm): 31%
% mortality (obs) ([5]; rate 2.5 ppm): 15%
% mortality (obs) ([5]; rate 3.5 ppm): 11%
% mortality (obs) ([6]; rate 1 ppm): 27%
% mortality (obs) ([6]; rate 10 ppm): 57%
% mortality (obs) ([6]; rate 150 ppm): 67%
% mortality (obs) ([7]; rate 5 ppm): 40%
% mortality (obs) ([7]; rate 20 ppm): 70%
% mortality (obs) ([7]; rate 150 ppm): 90%

Fipronil
% mortality (obs) ([1]; rate 0.5 ppm): 7%
% mortality (obs) ([1]; rate 1 ppm): 20%
% mortality (obs) ([1]; rate 1.5 ppm): 27%
% mortality (obs) ([2]; rate 50 ppm): 1%
% mortality (obs) ([2]; rate 100 ppm): 0%
% mortality (obs) ([2]; rate 1000 ppm): 13%
% mortality (obs) ([4]; rate 2 ppm): 17%
% mortality (obs) ([4]; rate 4 ppm): 31%
% mortality (obs) ([4]; rate 8 ppm): 50%
% mortality (obs) ([5]; rate 0.5 ppm): 5%
% mortality (obs) ([5]; rate 1 ppm): 41%
% mortality (obs) ([5]; rate 1.5 ppm): 15%
% mortality (obs) ([6]; rate 2 ppm): 27%
% mortality (obs) ([6]; rate 4 ppm): 44%
% mortality (obs) ([6]; rate 8 ppm): 85%
% mortality (obs) ([7]; rate 0.5 ppm): 100%
% mortality (obs) ([7]; rate 2 ppm): 100%
% mortality (obs) ([7]; rate 10 ppm): 100%

Novaluron
% mortality (obs) ([1]; rate 250 ppm): 7%
% mortality (obs) ([1]; rate 500 ppm): 7%
% mortality (obs) ([1]; rate 1000 ppm): 0%
% mortality (obs) ([2]; rate 2 ppm): 2%
% mortality (obs) ([2]; rate 10 ppm): 0%
% mortality (obs) ([2]; rate 250 ppm): 28%
% mortality (obs) ([4]; rate 250 ppm): 14%
% mortality (obs) ([4]; rate 500 ppm): 24%
% mortality (obs) ([4]; rate 1000 ppm): 25%
% mortality (obs) ([5]; rate 250 ppm): 7%
% mortality (obs) ([5]; rate 500 ppm): 5%
% mortality (obs) ([5]; rate 1000 ppm): 100%
% mortality (obs) ([6]; rate 50 ppm): 28%
% mortality (obs) ([6]; rate 250 ppm): 30%
% mortality (obs) ([6]; rate 1000 ppm): 29%
% mortality (obs) ([7]; rate 1 ppm): 50%
% mortality (obs) ([7]; rate 100 ppm): 50%
% mortality (obs) ([7]; rate 1000 ppm): 80%

Pymetrozine
% mortality (obs) ([1]; rate 2 ppm): 0%
% mortality (obs) ([1]; rate 15 ppm): 13%
% mortality (obs) ([1]; rate 200 ppm): 60%
% mortality (obs) ([2]; rate 10 ppm): 3%
% mortality (obs) ([2]; rate 100 ppm): 7%
% mortality (obs) ([2]; rate 1000 ppm): 52%
% mortality (obs) ([4]; rate 0.1 ppm): 13%
% mortality (obs) ([4]; rate 0.5 ppm): 41%
% mortality (obs) ([4]; rate 2 ppm): 79%
% mortality (obs) ([5]; rate 2 ppm): 51%
% mortality (obs) ([5]; rate 10 ppm): 29%
% mortality (obs) ([5]; rate 30 ppm): 89%
% mortality (obs) ([6]; rate 0.1 ppm): 22%
% mortality (obs) ([6]; rate 0.5 ppm): 38%
% mortality (obs) ([6]; rate 2 ppm): 62%
% mortality (obs) ([7]; rate 10 ppm): 100%
% mortality (obs) ([7]; rate 100 ppm): 100%
% mortality (obs) ([7]; rate 1000 ppm): 100%

Pyridalyl
% mortality (obs) ([1]; rate 0.5 ppm): 13%
% mortality (obs) ([1]; rate 5 ppm): 13%
% mortality (obs) ([1]; rate 50 ppm): 7%
% mortality (obs) ([2]; rate 10 ppm): 0%
% mortality (obs) ([2]; rate 25 ppm): 0%
% mortality (obs) ([2]; rate 100 ppm): 0%
% mortality (obs) ([4]; rate 1 ppm): 18%
% mortality (obs) ([4]; rate 10 ppm): 8%
% mortality (obs) ([4]; rate 20 ppm): 3%
% mortality (obs) ([5]; rate 10 ppm): 2%
% mortality (obs) ([5]; rate 100 ppm): 6%
% mortality (obs) ([5]; rate 1000 ppm): 11%
% mortality (obs) ([6]; rate 1 ppm): 22%
% mortality (obs) ([6]; rate 1.5 ppm): 34%
% mortality (obs) ([6]; rate 2 ppm): 32%
% mortality (obs) ([7]; rate 5 ppm): 30%
% mortality (obs) ([7]; rate 50 ppm): 60%
% mortality (obs) ([7]; rate 500 ppm): 100%

Pyriproxyfen
% mortality (obs) ([1]; rate 10 ppm): 13%
% mortality (obs) ([1]; rate 100 ppm): 0%
% mortality (obs) ([1]; rate 1000 ppm): 7%
% mortality (obs) ([2]; rate 10 ppm): 100%
% mortality (obs) ([2]; rate 15 ppm): 100%
% mortality (obs) ([2]; rate 20 ppm): 100%
% mortality (obs) ([4]; rate 10 ppm): 23%
% mortality (obs) ([4]; rate 100 ppm): 12%
% mortality (obs) ([4]; rate 1000 ppm): 26%
% mortality (obs) ([5]; rate 10 ppm): 0%
% mortality (obs) ([5]; rate 100 ppm): 8%
% mortality (obs) ([5]; rate 1000 ppm): 12%
% mortality (obs) ([6]; rate 10 ppm): 14%
% mortality (obs) ([6]; rate 100 ppm): 28%
% mortality (obs) ([6]; rate 1000 ppm): 33%
% mortality (obs) ([7]; rate 10 ppm): 100%
% mortality (obs) ([7]; rate 100 ppm): 100%
% mortality (obs) ([7]; rate 1000 ppm): 100%

Thiacloprid
% mortality (obs) ([1]; rate 0.2 ppm): 73%
% mortality (obs) ([1]; rate 0.5 ppm): 93%
% mortality (obs) ([1]; rate 1.5 ppm): 80%
% mortality (obs) ([2]; rate 15 ppm): 40%
% mortality (obs) ([2]; rate 25 ppm): 83%
% mortality (obs) ([2]; rate 35 ppm): 61%
% mortality (obs) ([4]; rate 0.2 ppm): 13%
% mortality (obs) ([4]; rate 0.3 ppm): 68%
% mortality (obs) ([4]; rate 0.4 ppm): 42%
% mortality (obs) ([5]; rate 0.3 ppm): 6%
% mortality (obs) ([5]; rate 3 ppm): 100%
% mortality (obs) ([5]; rate 30 ppm): 100%
% mortality (obs) ([6]; rate 0.3 ppm): 50%
% mortality (obs) ([6]; rate 1.5 ppm): 100%
% mortality (obs) ([6]; rate 6 ppm): 100%
% mortality (obs) ([7]; rate 1 ppm): 20%
% mortality (obs) ([7]; rate 100 ppm): 30%
% mortality (obs) ([7]; rate 3000 ppm): 40%
